Assay results reported in article PMC10709007, “GPR162 is a beta cell CART receptor” (iScience, 2023).
Entries after “also recorded” stand apart in the source; their conditions may differ. Where no end group is shown, it is not given here.

Tests used:
INS-1 832/13 cells = test: Actin staining (phalloidin) in INS-1 832/13 cells; format: cell-based, rat; settings: 10^-7M CARTp55-102, 24 h, n = 6
Description: INS-1 832/13 cells (a rat insulinoma cell line of male origin) were cultured in RPMI 1640 medium (Sigma Aldrich, St. Louis, MO) containing 2 g/L D-glucose, supplemented with 10% FBS, 10 mM HEPES, 1 mM sodium pyruvate and 50 μM β-mercaptoethanol (Sigma Aldrich) in a humidified atmosphere (37°C, 5% CO2). For investigations of actin architecture, INS-1 832/13 cells were seeded in 8-well chamber slides (Sarstedt) and transfected as described below before being fixed, permeabilized and stained with phalloidin (Phalloidin-iFluor488, Abcam, Cambridge, UK) for 60 min. Nuclei were counter-stained with DAPI and F-actin was visualized using Phalloidin-iFluor488 (Abcam). Phalloidin staining was performed for 60 min at a dilution of 1:1000 (in PBS +0.25% Triton X-100). Phalloidin intensity was quantified using the ImageJ software.

KATO III cells = settings: KATO III cells, RNA interference of Gpr160; cited from earlier work
From the text: When studying neuropathic pain, Yosten et al.[11] found GPR160 to be necessary for CARTp-mediated cell activation in cell culture. […] Information on GPR160 is scarce, but it has been reported to be a potential marker for prostate cancer,[24] where it is involved in apoptosis and cell-cycle arrest.[25] […] Recently, the notion of GPR160 being the ...

AtT20 cells = settings: cited from earlier work
From the text: However, much earlier, a fragment of the CART peptide was identified in extracts of sheep hypothalamus.[2] CART was later found to be expressed also in pancreatic islet cells and in nerve fibers innervating the islets.[3]^,[4]^,[5] […] Since then, multiple biological effects of CART have been established.[4]^,[7] Among them is the effect of CART on islet hormone secretion fr ...

beta cells in islets = settings: between beta cells within same islet; cited from earlier work
From the text: Our observation that CART affects cytoskeletal rearrangement is novel. Without doubt, the actin network is of great importance for properly functioning insulin secretion.[34]^,[35]^,[36]^,[37] In the present study, a large number of genes involved in cytoskeletal rearrangement were affected by both Cartpt KD and Gpr162 KD. […] Furthermore, Cartpt KD also affects genes crucial for regulation of exocytosis,[14] a process indeed dependent on ...

GPR162 [1] = test: Co-immunoprecipitation of CART and GPR162 in INS-1 832/13 cells; format: binding, rat; settings: 10^-7M CARTp55-102, 30 min at 4°C, BS3 cross-link, precipitation with CART antibody, GPR162 blot; n = 3 biological replicates
Description: INS-1 832/13 cell lysates were incubated with 10^−7M CARTp55-102 for 30 min at 4°C and then cross-linked with 1 mM BS[3] for 30 min at room temperature, then precipitated using biotin-labelled CART antibody (code H003-62, dilution 1:5000, Phoenix Pharmaceuticals) bound to streptavidin-coated magnetic Dynabeads (Thermo Fisher). Cells lysates were then washed five times in ice-cold PBS and membrane proteins were extracted using MemPER Plus (Thermo Scientific). Protein concentration was then measured using BCA assay (BioRad, Hercules, CA) and 20 μg loaded on a 10% Mini-PROTEAN TGX Stain-Free gel (BioRad). After electrophoresis (200 V for 40 min) and transfer, the PVDF membrane was blocked in TBS-T with 5% fat free dry milk. Primary antibody (anti-rabbit GPR162, code TA331838, 1:100 dilution, Origene, Rockville, MD) was dissolved in 1XTBS-T with 5% BSA (overnight at 4°C). Secondary antibody (anti-rabbit IgG; 1:2500 dilution) was diluted in 1XTBS-T with 5% dry milk. All wash steps were for 10 min in 1XTBS-T.

GPR162 [2] = test: Proximity ligation assay (PLA) CART-GPR162 in INS-1 832/13 cells; format: binding, rat
Description: INS-1 832/13 cells were seeded in 8-well tissue culture chambers (Sarstedt, Nümbrecht, Germany). 10^−7M rat CARTp55-102 (Phoenix Pharmaceuticals, Burlingame, CA) was added to fresh media and cells were incubated for 5 min in a humidified atmosphere (37°C, 5% CO2). Cells were rinsed quickly in ice-cold 1XPBS and then washed twice with ice-cold PBS. Cells were then fixed for 20 min in 4% paraformaldehyde, washed 2 × 10 min in 1XPBS and permeabilized for 15 min in PBS +0.25% Triton X-100. Proximity ligation assay (PLA) (DuoLink In situ Red Starter Kit Goat/Rabbit, Sigma Aldrich) was performed according to the instructions provided by the manufacturers. The following antibody combinations were used for the PLA: goat anti-GPR162 (sc-138323, dilution 1:500, Santa Cruz) with rabbit anti-CART (code 2059A, dilution 1:5000, kindly provided by Dr. Jes T. Clausen, Novo Nordisk, Måløv, Denmark), and goat anti-CART (code sc-18068, dilution 1:400, Santa Cruz) with rabbit anti-GPR162 (code PA5-33655, dilution 1:500, Thermo Scientific). Anti-rabbit GPR160 (code PA5-33650) was combined with anti-goat CART (code sc-18068 from Santa Cruz). Anti-rabbit GNA13 (PA5-100644) was combined with anti-goat GPR162 (sc-138323). Negative controls were omission of both antibodies and the combination of the CART antibody with an antibody toward a receptor with a known ligand. […]

rats = settings: cited from earlier work
From the text: However, much earlier, a fragment of the CART peptide was identified in extracts of sheep hypothalamus.[2] CART was later found to be expressed also in pancreatic islet cells and in nerve fibers innervating the islets.[3]^,[4]^,[5] […] Since then, multiple biological effects of CART have been established.[4]^,[7] Among them is the effect of CART on islet hormone secretion fr ... || When studying neuropathic pain, Yosten et al.[11] found GPR160 to be necessary for CARTp-mediated cell activation in cell culture. […] Information on GPR160 is scarce, but it has been reported to be a potential marker for prostate cancer,[24] where it is involved in apoptosis and cell-cycle arrest.[25] […] Recently, the notion of GPR160 being the ... || (+ 1 further places)

For “CARTp55-102: Rat, mouse CARTp55-102 (Phoenix Pharmaceuticals, Cat#003-62); human form Cat#003-60; cocaine- and amphetamine-regulated transcript peptide (IPIYEKKYGQVPMCDAGEQCAVRKGARIGKLCDCPRGTSCNSFLLKCL; ends and bridges not checked; cysteine pairing not given here)”, the “Effect of CARTp on actin staining in Gpr162 KD cells” value (INS-1 832/13 cells; listed as CART) was “near-complete abolishment”, the “Effect of CARTp on actin staining in Gpr162 KD cells” value (INS-1 832/13 cells; listed as CARTp) was “without effect; also recorded: lost in Gpr162 KD cells” and the “Increase in actin staining” value (INS-1 832/13 cells; control cells, phalloidin) was “approximately 2 -fold”. The “c-FOS expression after Gpr160 RNA interference” value (KATO III cells) was “RNA interference of Gpr160 prevented CART from activating c-FOS expression”, the “Displacement of radiolabeled CART” value (AtT20 cells) was “radiolabeled CART to be displaced by CARTp55-102” and the “Synchronization of Ca2+ oscillations” value (beta cells in islets) was “increased synchronization of Ca^2+ oscillations”. For the same substance, the “Co-immunoprecipitated GPR162” value (GPR162 [1]) was “stronger binding for GPR162 in the CARTp-treated cells than the binding observed in control cells”, the “CART-GPR162 interaction (PLA)” value (GPR162 [2]; 10^-7M rat CARTp55-102, 5 min, 37°C, n = 8) was “confirmed an interaction between GPR162 and CART” and the “Reduction of CART-GPR162 interaction (PLA) in Gpr162 siRNA cells” value (GPR162 [2]; Gpr162 siRNA vs control cells, 10^-7M CARTp55-102, n = 8, p < 0.005) was 90%. The “Anorexigenic effects of CART on meal microstructure after Gpr160 knockdown” value (rats; AAV-mediated knockdown of Gpr160 in dorsal vagal complex, rat) was “partially attenuates the anorexigenic effects of CART on meal microstructure” and the Anorexigenic effect (rats) was “anorexigenic effects”.
